# Test results published in EP4810492A1, “NMT INHIBITOR, PREPARATION METHOD THEREFOR, AND USE THEREOF” (Nanjing Synnocare Pharmaceutical Technology Co., Ltd., priority 2023, dated 2025).
# Where two headings read alike, the source gives them in different places.
# Columns and labels:
# MV-4-11 cells = test: Anti-proliferative activity against MV-4-11 cells (cell viability chemiluminescence); type: cell-based; settings: MV-4-11 human monocytic leukemia cells, three days of exposure
# Experimental: This study utilized a cell proliferation assay to analyze the cytotoxicity of MV-4-11 human monocytic leukemia cells after three days of exposure to NMT1 inhibitors. The MV-4-11 cell line was purchased from Nanjing Cobuilder Biotechnology Co., Ltd., and cultured in IMDM medium (Viva cell) in an incubator (Thermo) at 37 °C with 5% CO2. In this experiment, NMT1 inhibitors were dissolved in DMSO to obtain 600 µM stock solutions. Dose-response solutions were prepared with a top endpoint compound concentration of 3 µM, followed by three-fold serial dilutions in DMSO, totaling eight data points. The final concentration of DMSO was 0.5%.
# MV-4-11 cells were seeded into a white 96-well plate, 80 µL of cell suspension per well, containing 6000 MV-4-11 cells. The cell plate was placed in the CO2 incubator for overnight culture. Then, 20 µL of NMT1 inhibitor solutions at different concentrations were added to the wells. The 96-well plate was placed back into the incubator for three days. Another cell plate was prepared, and the signal was read on the day of drug addition to serve as the maximum value (Max value in the equation below) for data analysis. To this cell plate, 25 µL of cell viability chemiluminescence detection reagent was added per well, followed by incubation at room temperature for 10 minutes to stabilize the luminescence signal. A multi-label analyzer was used for reading.
# The raw data were converted into inhibition rates using the equation (Sample - Min) / (Max - Min) * 100%. The IC50 values were then determined by fitting a four-parameter curve (using the "log(inhibitor) vs. response - Variable slope" model in GraphPad Prism). Min: wells treated with 0.5% DMSO; Max: Day 0 wells. Table 1 provides the inhibitory activity of the compounds of the invention on MV-4-11 cell proliferation. Table 1: Compound Inhibitory Activity against NMT1 Enzyme (IC50) and Anti-proliferative Activity against MV-4-11 Cell line (IC50)
# NMT1 enzyme = target: T1, NMT1 enzyme (Homo sapiens, UniProt P30419); test: Inhibitory activity on NMT1 enzyme catalysis (fluorescence intensity assay); type: biochemical
# T1 sequence (P30419 1-496): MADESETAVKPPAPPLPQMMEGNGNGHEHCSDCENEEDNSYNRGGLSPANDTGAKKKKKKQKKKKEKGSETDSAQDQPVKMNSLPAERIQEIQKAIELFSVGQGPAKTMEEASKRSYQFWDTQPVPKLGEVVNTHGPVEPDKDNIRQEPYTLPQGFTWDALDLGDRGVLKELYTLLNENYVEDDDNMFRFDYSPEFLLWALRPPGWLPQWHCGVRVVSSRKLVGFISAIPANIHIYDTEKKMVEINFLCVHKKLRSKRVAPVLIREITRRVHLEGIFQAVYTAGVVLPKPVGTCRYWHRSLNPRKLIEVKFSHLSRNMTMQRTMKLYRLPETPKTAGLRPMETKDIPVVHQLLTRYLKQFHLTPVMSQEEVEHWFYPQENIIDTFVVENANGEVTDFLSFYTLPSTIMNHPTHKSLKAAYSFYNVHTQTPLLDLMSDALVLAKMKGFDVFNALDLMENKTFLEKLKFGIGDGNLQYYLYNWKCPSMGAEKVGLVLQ
# Experimental: This study evaluated the ability of the compounds of the invention to inhibit NMT1 catalytic activity in vitro. […] The final concentration of the NMT1 enzyme was 6 nM, the final concentration of CPM (Reactive thiol fluorescence probe, Invitrogen, D346) was 1 µM, the final concentration of HSPP60 SRC was 20 µM, and the final concentration of DMSO was 0.5%.
# Compounds were dissolved in DMSO to obtain 10 mM stock solutions. Dose-response solutions were prepared with a top endpoint compound concentration of 3 mM, followed by three-fold serial dilutions in DMSO, totaling ten data points. […] Then, 2.5 µL of the NMT1 enzyme working solution was added to the 384-well assay plate, followed by incubation at 25 °C for 10 minutes. Subsequently, 5 µL of the CPM and myristoyl-CoA working solution was added, the plate was centrifuged at 1000 rpm for 1 minute, and then 2.5 µL of the HSPP60 SRC working solution was added to initiate the reaction. The reaction was incubated at 25 °C for 45 minutes.
# The IC50 curve of the compounds was fitted using the software XLfit 5.5.0 according to the nonlinear regression equation.
# [1] = 6 nM NMT1 enzyme, 1.25 µM myristoyl-CoA, 20 µM HSPP60 SRC peptide, 45 minutes at 25 °C, read-out: NMT1 (IC50)
SMILES,"IC50 (MV-4-11 cells; MV4-11, 72 h) [nM]",IC50 (NMT1 enzyme; [1]) [nM],further results
Cc1c(NS(=O)(=O)c2c(Cl)cc(-c3ccc4sc5c(c4c3)CNCC5)cc2Cl)c(C2CC2)nn1C [Compound 4],25.8,3.64,–
Cc1c(NS(=O)(=O)c2c(Cl)cc(-c3ccc4sc5c(c4c3)CNCC5)cc2Cl)c(CO)nn1C [Compound 14],145,7.89,–
COCc1nn(C)c(C)c1NS(=O)(=O)c1c(Cl)cc(-c2ccc3sc4c(c3c2)CNCC4)cc1Cl [Compound 15],–,–,"IC50 (MV-4-11 cells; Homo sapiens, MV4-11, 72 h): 78.6 nM; IC50 (NMT1 enzyme): 4.73 nM"
Cc1c(NS(=O)(=O)c2c(Cl)cc(-c3ccc4sc5c(c4c3)CNCC5)cc2Cl)c(CF)nn1C [Compound 16],58.5,4.67,–
CCc1nn(C)c(C)c1NS(=O)(=O)c1c(Cl)cc(-c2ccc3oc4c(c3c2)CNCC4)cc1Cl [Compound 46],18.8,3.96,–
Cc1nn(C)c(C)c1NS(=O)(=O)c1c(Cl)cc(-c2ccc3oc4c(c3c2)CNCC4)cc1Cl [Compound 47],23.1,4.17,–
Cc1c(NS(=O)(=O)c2c(Cl)cc(-c3ccn4nc5c(c4c3)CNCC5)cc2Cl)c(CC(C)C)nn1C [Compound 48],36.7,4.2,–
CCc1nn(C)c(C)c1NS(=O)(=O)c1c(Cl)cc(-c2ccn3nc4c(c3c2)CNCC4)cc1Cl [Compound 49],16.8,3.64,–
Cc1nn(C)c(C)c1NS(=O)(=O)c1c(Cl)cc(-c2ccn3nc4c(c3c2)CNCC4)cc1Cl [Compound 50],21.9,3.79,–
CCc1nn(C)c(C)c1NS(=O)(=O)c1c(Cl)cc(-c2ccc3sc4c(c3c2)CCNC4)cc1Cl [Compound 55],26.2,3.97,–
Cc1nn(C)c(C)c1NS(=O)(=O)c1c(Cl)cc(-c2ccc3sc4c(c3c2)CCNC4)cc1Cl [Compound 56],29.7,4.21,–
Cc1c(NS(=O)(=O)c2c(Cl)cc(-c3ccc4c(c3)N3CCNC[C@H]3CO4)cc2Cl)c(CC(C)C)nn1C [Compound 57],–,–,"IC50 (MV-4-11 cells; Homo sapiens, MV4-11, 72 h): 144 nM; IC50 (NMT1 enzyme): 8.76 nM"
Cc1c(NS(=O)(=O)c2c(Cl)cc(-c3ccc4c(c3)N3CCNC[C@@H]3CO4)cc2Cl)c(CC(C)C)nn1C [Compound 60],–,–,"IC50 (MV-4-11 cells; Homo sapiens, MV4-11, 72 h): 152 nM; IC50 (NMT1 enzyme): 7.95 nM"
"Cc1c(NS(=O)(=O)c2c(Cl)cc(N3CCc4sc5c(c4C3)CNCC5)cc2Cl)c(CC(C)C)nn1C [Compound 63, 2,6-dichloro-4-(3,4,6,7,8,9-hexahydrothieno[3,2-c:4,5-c']dipyridine-2(1H)-yl)-N-(3-isobutyl-1,5-dimethyl-1H-pyrazol-4-yl)benzenesulfonamide]",16.7,3.35,–
CCc1nn(C)c(C)c1NS(=O)(=O)c1c(Cl)cc(N2CCc3sc4c(c3C2)CNCC4)cc1Cl [Compound 64],7.36,2.97,–
Cc1nn(C)c(C)c1NS(=O)(=O)c1c(Cl)cc(N2CCc3sc4c(c3C2)CNCC4)cc1Cl [Compound 65],21.1,3.51,–
Cc1c(NS(=O)(=O)c2c(Cl)cc(N3CCn4nc5c(c4C3)CNCC5)cc2Cl)c(CC(C)C)nn1C [Compound 69],21.9,3.75,–
CCc1nn(C)c(C)c1NS(=O)(=O)c1c(Cl)cc(N2CCn3nc4c(c3C2)CNCC4)cc1Cl [Compound 70],15.2,3.46,–

SMILES,"IC50 (MV-4-11 cells; MV4-11, 72 h) [nM]",IC50 (NMT1 enzyme; [1]) [nM],further results
Cc1nn(C)c(C)c1NS(=O)(=O)c1c(Cl)cc(N2CCn3nc4c(c3C2)CNCC4)cc1Cl [Compound 71],25.9,3.79,–
Cc1nn(C)c(C)c1NS(=O)(=O)c1ccc(-c2ccc3sc4c(c3c2)CNCC4)cc1Cl [Compound B1],14.4,2.67,–
Cc1nn(C)c(C)c1NS(=O)(=O)c1ccc(-c2ccc3oc4c(c3c2)CNCC4)cc1Cl [Compound B3],21.9,3.1,–
Cc1nn(C)c(C)c1NS(=O)(=O)c1ccc(-c2ccc3sc4c(c3c2)CNCC4)cc1 [Compound B4],15.8,2.94,–
Cc1nn(C)c(C)c1NS(=O)(=O)c1ccc(-c2ccc3oc4c(c3c2)CNCC4)cc1 [Compound B6],23.3,3.76,–
CCc1nn(C)c(C)c1NS(=O)(=O)c1ccc(-c2ccc3sc4c(c3c2)CNCC4)cc1Cl [Compound B7],9.82,2.93,–
CCc1nn(C)c(C)c1NS(=O)(=O)c1ccc(-c2ccc3oc4c(c3c2)CNCC4)cc1Cl [Compound B9],13.5,2.52,–
CCc1nn(C)c(C)c1NS(=O)(=O)c1ccc(-c2ccc3sc4c(c3c2)CNCC4)cc1 [Compound B10],10.1,2.39,–
CCc1nn(C)c(C)c1NS(=O)(=O)c1ccc(-c2ccc3oc4c(c3c2)CNCC4)cc1 [Compound B12],17.8,2.98,–
Cc1c(NS(=O)(=O)c2ccc(-c3ccc4oc5c(c4c3)CNCC5)cc2Cl)c(CC(C)C)nn1C [Compound B14],25.9,3.06,–
Cc1c(NS(=O)(=O)c2ccc(-c3ccc4oc5c(c4c3)CNCC5)cc2)c(CC(C)C)nn1C [Compound B16],32.4,3.84,–
Cc1c(NS(=O)(=O)c2ccc(-c3ccc4sc5c(c4c3)CNCC5)cc2Cl)c(CC#N)nn1C [Compound B19],21.7,3.07,–
Cc1c(NS(=O)(=O)c2ccc(-c3ccc4sc5c(c4c3)CCNC5)cc2Cl)c(CC#N)nn1C [Compound B20],34.9,3.56,–
Cc1c(NS(=O)(=O)c2c(Cl)cc(-c3ccc4sc5c(c4c3)CCNC5)cc2Cl)c(CC2CC2)nn1C [Compound B25],–,–,"IC50 (MV-4-11 cells; Homo sapiens, MV4-11, 72 h): 10.4 nM; IC50 (NMT1 enzyme; read-out: NMT1 (IC50), 6 nM NMT1 enzyme, 1.25 µM myristoyl-CoA, 20 µM HSPP60 SRC peptide, 45 minutes at 25 °C): 2.62 nM"
Cc1c(NS(=O)(=O)c2ccc(-c3ccc4sc5c(c4c3)CNCC5)cc2Cl)c(CC2CC2)nn1C [Compound B27],9.68,2.08,–
Cc1c(NS(=O)(=O)c2ccc(-c3ccc4oc5c(c4c3)CNCC5)cc2Cl)c(CC2CC2)nn1C [Compound B29],17.4,3.6,–
Cc1c(NS(=O)(=O)c2ccc(-c3ccc4sc5c(c4c3)CCNC5)cc2Cl)c(CC(F)F)nn1C [Compound B60],62.8,–,–
"Cc1c(NS(=O)(=O)c2c(Cl)cc(-c3ccnc(N4CCNCC4)c3)cc2Cl)c(CC(C)C)nn1C [PCLX-001, reference compound]",–,–,"IC50 (MV-4-11 cells; Homo sapiens, MV4-11, 72 h): 75.3 nM; IC50 (MV-4-11 cells): 74.3 nM"
